From ChEMBL document CHEMBL1133354, “5-Thienyltryptamine derivatives as serotonin 5-HT1B/1D receptor agonists: potential treatments for migraine” (Bioorg Med Chem Lett, 2000)

Assays:
[1] = target: 5-hydroxytryptamine receptor 1D (Homo sapiens, UniProt P28221); assay: Binding affinity for human 5-hydroxytryptamine 1D receptor
[2] = target: 5-hydroxytryptamine receptor 1B (Homo sapiens, UniProt P28222); assay: Binding affinity for human 5-hydroxytryptamine 1B receptor
Chain of 5-hydroxytryptamine receptor 1B (P28222 whole entry): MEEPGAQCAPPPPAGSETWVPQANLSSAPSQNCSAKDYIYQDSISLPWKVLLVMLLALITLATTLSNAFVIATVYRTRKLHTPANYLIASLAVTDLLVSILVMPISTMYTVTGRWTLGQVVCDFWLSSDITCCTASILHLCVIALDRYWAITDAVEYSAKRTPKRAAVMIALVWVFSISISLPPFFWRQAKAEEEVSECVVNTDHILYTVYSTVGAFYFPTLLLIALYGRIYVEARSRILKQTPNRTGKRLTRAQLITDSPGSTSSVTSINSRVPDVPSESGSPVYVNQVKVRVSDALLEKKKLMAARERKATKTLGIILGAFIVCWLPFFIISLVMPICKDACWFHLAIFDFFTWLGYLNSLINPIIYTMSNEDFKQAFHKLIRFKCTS

Chain of 5-hydroxytryptamine receptor 1D (P28221 whole entry): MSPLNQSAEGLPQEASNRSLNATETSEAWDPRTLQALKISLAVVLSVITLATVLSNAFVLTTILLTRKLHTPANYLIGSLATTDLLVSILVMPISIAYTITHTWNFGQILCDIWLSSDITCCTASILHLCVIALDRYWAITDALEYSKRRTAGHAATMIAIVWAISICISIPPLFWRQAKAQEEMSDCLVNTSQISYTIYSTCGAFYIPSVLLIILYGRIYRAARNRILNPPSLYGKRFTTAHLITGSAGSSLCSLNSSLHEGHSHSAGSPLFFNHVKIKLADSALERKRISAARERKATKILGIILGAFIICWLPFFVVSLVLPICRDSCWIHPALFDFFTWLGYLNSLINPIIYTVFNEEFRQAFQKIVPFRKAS

| Structure (SMILES) | Ki [1] [nM] | Ki [2] [nM] |
| --- | --- | --- |
| CN(C)CCc1c[nH]c2ccc(-c3cccs3)cc12 | 0.7 | 23 |
| CN(C)CCc1c[nH]c2ccc(-c3ccsc3)cc12 | 0.5 | 17 |
| C1=CCN(CCc2c[nH]c3ccc(-c4cccs4)cc23)C1 | 4.5 | 107 |
| CC1CCC(C)N1CCc1c[nH]c2ccc(-c3cccs3)cc12 (configuration not stated) | 2.5 | 70 |
| OC[C@@H]1CCCN1CCc1c[nH]c2ccc(-c3cccs3)cc12 | 8.2 | 113 |
| Cc1ccc(-c2ccc3[nH]cc(CCN(C)C)c3c2)s1 | 3.2 | 133 |
| c1csc(-c2ccc3[nH]cc(CCN4CCCC4)c3c2)c1 | 19 | 714 |
| NCCc1c[nH]c2ccc(-c3cccs3)cc12 | 1.7 | 32 |
| COC[C@@H]1CCCN1CCc1c[nH]c2ccc(-c3cccs3)cc12 | 1.8 | 9.9 |
| CN(C)CCc1c[nH]c2ccc(-c3ccc(Cl)s3)cc12 | 7.6 | 303 |
| Clc1ccc(-c2ccc3[nH]cc(CCN4CCCC4)c3c2)s1 | 31 | 476 |
